Measurements published in the OPERA property sets (Mansouri et al. 2018).

logP | SMILES
0.92 | COc1ccc2c(c1)OCC2NC(=O)CN1CCOCC1 (centres undefined)
1.38 | Cc1ccc2c(c1)C(NC(=O)CN1CCOCC1)CO2 (centres undefined)
1.55 | O=C(CN1CCOCC1)NC1COc2ccc(Cl)cc21 (centres undefined)
2.47 | O=C(CN1CCCC1)NC1COc2ccc(Cl)cc21 (centres undefined)
2.78 | Cc1ccc2c(c1)C(NC(=O)CN1CCCCC1)CO2 (centres undefined)
0.81 | O=C(CN1CCOCC1)NC1COc2ccccc21 (centres undefined)
2.24 | Cc1ccc2c(c1)C(NC(=O)CN1CCCC1)CO2 (centres undefined)
3.01 | O=C(CN1CCCCC1)NC1COc2ccc(Cl)cc21 (centres undefined)

Second part, the compound before the results:

SMILES | logP
CCN(CC)CC(=O)NC1COc2ccccc21 (centres undefined) | 2.2
CCCCN(CCCC)CC(=O)NC1COc2ccccc21 (centres undefined) | 4.15
O=C(CN1CCCC1)NC1COc2ccccc21 (centres undefined) | 1.76
O=C(CN1CCCCC1)NC1COc2ccccc21 (centres undefined) | 2.3
COc1ccc2c(c1)OCC2NC(=O)CN1CCCC1 (centres undefined) | 1.92
CCCCN(CCCC)CC(=O)NC1COc2ccc(C)cc21 (centres undefined) | 4.43
CCCCN(CCCC)CC(=O)NC1COc2cc(OC)ccc21 (centres undefined) | 4.24
CCCCN(CCCC)CC(=O)NC1COc2ccc(Cl)cc21 (centres undefined) | 4.44
CCN(CC)CC(=O)NC1COc2ccc(C)cc21 (centres undefined) | 2.69
CCN(CC)CC(=O)NC1COc2ccc(Cl)cc21 (centres undefined) | 2.88
COc1ccc2c(c1)OCC2NC(=O)CN1CCCCC1 (centres undefined) | 2.41
